Measured values taken from ChEMBL document CHEMBL5131458, “Design, synthesis and human carbonic anhydrase I, II, IX and XII inhibitory properties of 1,3-thiazole sulfonamides” (Bioorg Med Chem Lett, 2022).

What follows are compounds tested against Carbonic anhydrase 9 (Homo sapiens, UniProt Q16790) (assay: Inhibition of recombinant human carbonic anhydrase 9 incubated for 15 mins by phenol red based stopped-flow CO2 hydration assay).
Compound `CCCCCCOC(=O)c1csc(Nc2ccc(S(N)(=O)=O)cc2)n1` has a Ki of 70.6 nM. `CCCCCCCOC(=O)c1csc(Nc2ccc(S(N)(=O)=O)cc2)n1` was tested, and the Ki was 74.3 nM. For `NS(=O)(=O)c1ccc(Nc2nc(C(=O)OCCCCc3ccccc3)cs2)cc1`, the Ki was 86.8 nM. `CC(CO)OC(=O)c1csc(Nc2ccc(S(N)(=O)=O)cc2)n1` (stereo not given) showed a Ki of 37.9 nM. `NS(=O)(=O)c1ccc(Nc2nc(C(=O)OCCOc3ccccc3)cs2)cc1` was tested, and the Ki was 150 nM. `NS(=O)(=O)c1ccc(Nc2nc(C(=O)OCCO)cs2)cc1` was tested, and the Ki was 43.2 nM. Compound `CCCCOC(=O)c1csc(Nc2ccc(S(N)(=O)=O)cc2)n1` has a Ki of 71.1 nM. In the case of `CCCCCOC(=O)c1csc(Nc2ccc(S(N)(=O)=O)cc2)n1`, the Ki is reported as 72 nM. With `CC(O)COC(=O)c1csc(Nc2ccc(S(N)(=O)=O)cc2)n1` (stereo not given) the Ki was 37.9 nM. In the case of `CCOCCOC(=O)c1csc(Nc2ccc(S(N)(=O)=O)cc2)n1`, the Ki is reported as 51.2 nM. `COCCOC(=O)c1csc(Nc2ccc(S(N)(=O)=O)cc2)n1` was tested, and the Ki was 35.1 nM. For `CCCCCCCCOC(=O)c1csc(Nc2ccc(S(N)(=O)=O)cc2)n1`, the Ki was 78.9 nM. `CCCOC(=O)c1csc(Nc2ccc(S(N)(=O)=O)cc2)n1` was tested, and the Ki was 49.9 nM. `CC(C)OC(=O)c1csc(Nc2ccc(S(N)(=O)=O)cc2)n1` was tested, and the Ki was 90.3 nM. `NS(=O)(=O)c1ccc(Nc2nc(C(=O)OCCOCCO)cs2)cc1` was tested, and the Ki was 26.8 nM.
